Measurements as given in patent EP0358766A1, “METHOD OF STERILIZING PLANT ANTHERS” (VSESOJUZNY NAUCHNO-ISSLEDOVATELSKY INST. SELSKOKHOZYAISTV. …, priority 1988, dated 1989).
Where two headings read alike, the source gives them in different places.

Experiments:
[1] = test system: Sommerweizens Sorte Moskowskaya 35; assay: Field test of gametocidal activity, spring wheat Moskowskaya 35; format: in vivo, Weizen; conditions: for Kornzahl der Ähre bei freier Bestäubung / Kornzahl der Ähre im Isolator / Prozentsatz des Ansetzens von Samen bei freier Bestäubung: Moskowskaya 35, period V, 1% aqueous emulsion, 6 kg/ha in 600 l water; for Prozentsatz des Ansetzens von Samen bei freier Bestäubung: control = 100; for pest or weed control at 6000 g/ha: read-out: Prozentsatz der Sterilität
Description: (§1) Die gametozide Aktivität der erfindungsgemäßen Sterilisationsmittel war in Feldversuchen in verschiedenen bodenklimatischen Zonen mit Teilstücken von 10 m^2 Größe in dreibis viermaliger Wiederholung festgestellt. Jedes Sterilisationsmittel wurde mindenstens 5 Jahre lang geprüft.
(§2) Die Entwicklung der Perioden der Organogenese wird zytologisch überwacht. Die Behandlung von Pflanzen mit dem Sterilisationsmittel erfolgt am Anfang der fünften Periode der Organogenese nach Kupermann.
(§3) Mit dem Ährenschieben verwirklicht man die Isolierung von Hauptähren und anderen Stockwerken in Pergametbeuteln. Bei Weizen und Tritikale werden Einzelisolatoren benutzt. Bei Roggen schließt man je 1 Ähre von […] verschiedenen nebeneinander befindlichen Pflanzen unter einen gemeinsamen Isolator ein. Bei Hirse wird jede Rispe getrennt isoliert. Der Sterilitätsprozentsatz (X) für Weizen, Roggen, Tritikale und Hirse wird nach der Formel [formula] ermittelt.
(§4) Die Kornzahl in nicht isolierten Ähren von Kontrollpflanzen wird bedingt für 100 % Ansetzen bei freier Bestäubung angenommen.
(§5) Um zuverlässige Angaben zu erhalten, verwendet man 20 bis 25 Isolatoren je Wiederholung für Weizen und Tritikale, 10 bis 15 Isolatoren jeder Wiederholung für Roggen und Hirse.
Pflanzen des Sommerweizens Sorte Moskowskaya 35 werden in der V. Periode der Organogenese (nach Kupermann) mit einer l%igen wäßrigen Emulsion von 1,1,3-Tribrompropan, […], 1,1,2,3-Tetrabrompropan, 1,2,3-Tribrompropan, 1,2-Dibrompropan, 1,1,3-Tribrom-3-chlorpropan, 1,2-Dibrom-3-chlorpropan, 1,3-Dibrompropan, 1,1,1,3-Tetrabromheptan bzw. 1,1,3-Tribromheptan behandelt. Die Emulsion enthält als Emulgierungsmittel 0,5 Masse% C12-C14-Kalzium- alkylbenzolsulfonat und als Adjuvans 0,01 Masse% Dimethylformamid. Der Verbrauch an Präparat beträgt 6 kg/ha bei 600 1 Wasserdurchsatz. Als Kontrolle dienen Pflanzen, behandelt mit dem Verdünner ohne Sterilisationsmittel.
Die Prüfergebnisse sind in der Tabelle 2 angegeben. Die gleichen Ergebnisse sind bei der Behandlung des Sommerweizens Sorte Moskowskaya 35 in der VI.Periode der Organogenese erhalten.

[2] = test system: Winterweizens Sorte Mironowskaya 808; assay: Field test of gametocidal activity (anther sterilisation), winter wheat Mironowskaya 808; format: in vivo, Weizen; conditions: for Prozentsatz des Ansetzens von Samen bei freier Bestäubung: control = 100; for pest or weed control at 1 %, 10000 g/ha: read-out: Prozentsatz der Sterilität %
Description: as §1, §2, §3, §4, §5
Pflanzen des Winterweizens Sorte Mironowskaya 808 werden in der V.Periode der Organogenese durch Zerstäubung der 2%igen wäßrigen Emulsion von 1,1,3-Tribrompropan mit Hilfe einer Rückenspritze behandelt.
Als Emulgierungsmittel setzt man 0,5 Masse% C12-C14--Kalziumalkylbenzolsulphonat zu. Als Adjuvans enthält die Emulsion 0,01 Masse% Dimethylsulfoxid. Der Verbrauch an Präparat beträgt 20 kg/ha bei 1000 Liter Wasserdurchsatz. Als Kontrolle dienen Pflanzen, behandelt mit einem Verdünner ohne Sterilisationsmittel. Die Ergebnisse sind in der Tabelle 1 angegeben.
Der ProzeB wird analog zu dem in Beispiel 1 beschriebenen durchgeführt. Als Sterilisationsmittel verwendet man eine 2%ige waßrige Emulsion von 1,1,3-Tribrom-4-chlorbutan, 1,1,2,3-Tetrabrompropan. Die Prüfergebnisse sind in der Tabelle 1 angegeben.
Der Prozeß wird analog zu dem in Beispiel 1 beschriebenen durchgeführt, nur daß man 1%ige wäßrige Emulsion von 1,2,3-Tribrompropan, 1,2-Dibrompropan, 1,1,3-Tribrom-3--chlorpropan, 1,2-Dibrom-3-chlorpropan, 1,3-Dibrompropan, 1,1,1,3-Tetrabromheptan, 1,1,3-Tribromheptan, 1,2-Dibromheptan verwendet. Die Präparatdosis beträgt 10 kg ha. Die Prüfergebnisse sind in der Tabelle 1 angegeben. Die gleichen Ergebnisse sind bei der Behandlung des Weizens Sorte Mironowskaya 808 in der VI. Periode der Organogenese erhalten.

[3] = test system: diploidem Roggen Kharkovskaya 55; assay: Field test of gametocidal activity, diploid rye Kharkovskaya 55; format: in vivo; conditions: for Prozentsatz des Ansetzens von Samen bei freier Bestäubung: control = 100
Description: as §1, §2, §3, §4, §5
Pflanzen von diploidem Roggen Kharkovskaya 55 werden in der V. Periode der Organogenese mit einer l%igen wäßrigen Emulsion von 1,1,3-Tribrompropan, 1,2,3-Tribrompropan, 1,2-Dibrompropan, 1,1,3-Tribrom-3-chlorpropan, 1,2--Dibrom-3-chlorpropan, 1,1,1,3-Tetrabromheptan, 1,1,3-Tribromheptan bzw. 1,2-Dibromheptan behandelt. Die Emulsion enthält 0,5 Masse% C12-C14-Kalziumalkylbenzolsulfonat und 0,01 Masse% Dimethylformamid als Adjuvans. Der Verbrauch an Präparat beträgt 6 kg/ha bei 600 1 Wasserdurchsatz. Die Prüfergebnisse sind in der Tabelle 13 angegeben. Die gleichen Ergebnisse sind bei der Behandlung von diploidem Roggen Kharkovskaya 55 in der VI. Periode der Organogenese erhalten.

[4] = test system: Hirse Sorte Mironovskoye 94; assay: Field test of gametocidal activity, millet Mironovskoye 94; format: in vivo; conditions: for Prozentsatz des Ansetzens von Samen bei freier Bestäubung: control = 100
Description: as §1, §2, §3, §4, §5
Pflanzen der Hirse Sorte Mironovskoye 94 werden in der V.Periode der Organogenese mit einer 1%igen wäßrigen Emulsion von 1,1,3-Tribrompropan, 1,2,3-Tribrompropan, 1,2-Dibrompropan, 1,2-Dibrom-3-chlorpropan, 1,3-Dibrompropan, 1,1,1,3-Tetrabromheptan, 1,1,3-Tribromheptan, 1,2-Dibromheptan behandelt. Die Emulsion enthält 0,5 Masse% C12-C14--Kalziumalkylbenzolaulfonat und 0,01 Masse% Dimethylsulfoxid als Adjuvans. Der Verbrauch an Präparat beträgt 6 kg/ha bei 600 1 Wasserdurchsatz. Die Prüfergebnisse sind in der Tabelle 15 angegeben. Die gleichen Ergebnisse sind bei der Behandlung der Hirse Sorte Mironovskoye 94 in der VI. Periode der Organogenese erhalten.

diploidem Roggen Chulpan = assay: Field test of gametocidal activity, diploid rye Chulpan; format: in vivo; conditions: for Prozentsatz des Ansetzens von Samen bei freier Bestäubung: control = 100
Description: as §1, §2, §3, §4, §5
Pflanzen von diploidem Roggen Chulpan werden in der V.Periode der Organogenese mit einer 1%igen wäßrigen Emulsion von 1,1,3-Tribrompropan, 1,1,3-Tribrom-4-chlorbutan, 1,1,2,3-Tetrabrompropan, 1,2,3-Tribrompropan, 1,2-Dibrompropan, 1,1,3-Tribrom-3-ohlorpropan, 1,2-Dibrom-3--chlorpropan, 1,3-Dibrompropan, 1,1,1,3-Tetrabromheptan, 1,1,3-Tribromheptan bzw. 1,2-Dibromheptan behandelt. Die Emulsion enthält 0,5 Masse% C12-C14-Kalziumalkylbenzolsul- fonat und 0,01 Masse% Dimethylsulfoxid. Der Verbrauch an Präparat beträgt 10 kg/ha. Die Prüfergebnisse sind in der Tabelle 11 angegeben. Die gleichen Ergebnisse sind bei der Behandlung von diploidem Roggen Chulpan in der VI. Periode der Organogenese erhalten.

[5] = Mironowskaya 808, period V of organogenesis, 2% aqueous emulsion, 20 kg/ha in 1000 l water
[6] = Kharkovskaya 55, period V, 1% aqueous emulsion, 6 kg/ha in 600 l water
[7] = read-out: Prozentsatz der Sterilität
[8] = Mironovskoye 94, period V, 1% aqueous emulsion, 6 kg/ha in 600 l water
[9] = Chulpan, period V, 1% aqueous emulsion, 10 kg/ha
[10] = Mironowskaya 808, period V of organogenesis, 1% aqueous emulsion, 10 kg/ha

Compound	Kornzahl der Ähre bei freier Bestäubung [1]	Kornzahl der Ähre im Isolator [1]	Prozentsatz des Ansetzens von Samen bei freier Bestäubung [1]	pest or weed control at 6000 g/ha [1]	Kornzahl der Ähre bei freier Bestäubung [3, 6]	Kornzahl der Ähre im Isolator [3, 6]	Prozentsatz des Ansetzens von Samen bei freier Bestäubung [3, 6]	pest or weed control at 6000 g/ha [3, 7]	Kornzahl der Rispe bei freier Bestäubung [4, 8]	Kornzahl der Rispe im Isolator [4, 8]	Prozentsatz des Ansetzens von Samen bei freier Bestäubung [4, 8]	pest or weed control at 6000 g/ha [4, 7]	Kornzahl der Ähre bei freier Bestäubung (diploidem Roggen Chulpan; [9])	Kornzahl der Ähre im Isolator (diploidem Roggen Chulpan; [9])	Prozentsatz des Ansetzens von Samen bei freier Bestäubung (diploidem Roggen Chulpan; [9])	pest or weed control at 10000 g/ha (diploidem Roggen Chulpan; [7])	Kornzahl der Ähre bei freier Bestäubung [2, 10]	Kornzahl der Ähre im Isolator [2, 10]	Prozentsatz des Ansetzens von Samen bei freier Bestäubung [2, 10]	pest or weed control at 1 %, 10000 g/ha [2]	also measured
BrCCC(Br)Br [Beispiel 1, 1,1,3-Tribrompropan]	34,2	0,7	89,5%	99.9%	43,1	1,2	95,6%	97.2%	175,1	0,0	71,6%	100%	46,5	0,2	92,8%	99.6%					Kornzahl der Ähre bei freier Bestäubung [2, 5]: 40,3; Kornzahl der Ähre im Isolator [2, 5]: 0,9; Prozentsatz des Ansetzens von Samen bei freier Bestäubung [2, 5]: 84,0%
BrCC(Br)CBr [Beispiel 4, 1,2,3-Tribrompropan]	34,1	0,0	89,3%	100%	40,5	0,6	89,8%	98.6%	147,5	0,0	60,2%	100%	45,0	0,0	89,8%	100%	34,8	0,0	93,3%	100%	
CC(Br)CBr (stereo not shown) [Beispiel 5, 1,2-Dibrompropan]	33,6	0,0	87,9%	100%	42,8	0,8	94,9%	98.1%	160,3	0,0	65,5%	100%	48,2	0,0	96,2%	100%	36,7	0,1	98,4%	99.7%	
ClCC(Br)CBr (stereo not shown) [Beispiel 7, 1,2-Dibrom-3-chlorpropan]	33,8	0,0	88,5%	100%	39,5	0,0	87,6%	100%	202,6	0,0	82,8%	100%	42,5	0,0	84,8%	100%	33,8	0,0	90,6%	100%	
CCCCC(Br)CC(Br)(Br)Br (stereo not shown) [Beispiel 9, 1,1,1,3-Tetrabromheptan]	35,8	0,1	93,7%	99.9%	37,1	0,0	100,0%	100%	200,7	0,0	81,7%	100%	48,9	0,2	97,6%	99.6%	31,4	0,2	75,5%	99.5%	
CCCCCC(Br)CBr (stereo not shown) [Beispiel 11, 1,2-Dibromheptan]					34,0	0,0	91,6%		159,6	0,0	65,2%		48,3	0,0	96,4%		39,7	0,0	95,4%		pest or weed control at 1 %, 10000 g/ha [2, 10]: 100%; percent sterility at 6000 g/ha ([3]; Kharkovskaya 55, period V, 1% aqueous emulsion, 6 kg/ha in 600 l water, read-out: Prozentsatz der Sterilität): 100%; percent sterility at 6000 g/ha ([4]; Mironovskoye 94, period V, 1% aqueous emulsion, 6 kg/ha in 600 l water, read-out: Prozentsatz der Sterilität): 100%; percent sterility at 10000 g/ha (diploidem Roggen Chulpan; Chulpan, period V, 1% aqueous emulsion, 10 kg/ha, read-out: Prozentsatz der Sterilität): 100%
